The source of these data is ChEMBL document CHEMBL5143752, “Biological Effects of Modifications of the Englerin A Glycolate” (ACS Med Chem Lett, 2022).

Activity calls are given as the source filed them. No cut-off for these calls is given here.

The test system of one data set is A498. Kind of data set: Growth inhibition of human A498 cells assessed as cell growth inhibition. The class given is functional.
A further data set has as its system UO-31. As to the kind of experiment: Growth inhibition of human UO-31 cells assessed as cell growth inhibition. In kind it is functional.
Another data set concerns RXF 393. Kind of data set: Growth inhibition of human RXF 393 cells assessed as inhibition of cell growth. The class given is functional.
The nature of data set [1]: Acute toxicity in mouse assessed as maximum tolerated dose measured for 24 hrs. As to conditions: in vivo.
In data set [2] the target is T1, Short transient receptor potential channel 4 (Homo sapiens) (UniProt Q9UBN4).
T1 sequence (whole entry): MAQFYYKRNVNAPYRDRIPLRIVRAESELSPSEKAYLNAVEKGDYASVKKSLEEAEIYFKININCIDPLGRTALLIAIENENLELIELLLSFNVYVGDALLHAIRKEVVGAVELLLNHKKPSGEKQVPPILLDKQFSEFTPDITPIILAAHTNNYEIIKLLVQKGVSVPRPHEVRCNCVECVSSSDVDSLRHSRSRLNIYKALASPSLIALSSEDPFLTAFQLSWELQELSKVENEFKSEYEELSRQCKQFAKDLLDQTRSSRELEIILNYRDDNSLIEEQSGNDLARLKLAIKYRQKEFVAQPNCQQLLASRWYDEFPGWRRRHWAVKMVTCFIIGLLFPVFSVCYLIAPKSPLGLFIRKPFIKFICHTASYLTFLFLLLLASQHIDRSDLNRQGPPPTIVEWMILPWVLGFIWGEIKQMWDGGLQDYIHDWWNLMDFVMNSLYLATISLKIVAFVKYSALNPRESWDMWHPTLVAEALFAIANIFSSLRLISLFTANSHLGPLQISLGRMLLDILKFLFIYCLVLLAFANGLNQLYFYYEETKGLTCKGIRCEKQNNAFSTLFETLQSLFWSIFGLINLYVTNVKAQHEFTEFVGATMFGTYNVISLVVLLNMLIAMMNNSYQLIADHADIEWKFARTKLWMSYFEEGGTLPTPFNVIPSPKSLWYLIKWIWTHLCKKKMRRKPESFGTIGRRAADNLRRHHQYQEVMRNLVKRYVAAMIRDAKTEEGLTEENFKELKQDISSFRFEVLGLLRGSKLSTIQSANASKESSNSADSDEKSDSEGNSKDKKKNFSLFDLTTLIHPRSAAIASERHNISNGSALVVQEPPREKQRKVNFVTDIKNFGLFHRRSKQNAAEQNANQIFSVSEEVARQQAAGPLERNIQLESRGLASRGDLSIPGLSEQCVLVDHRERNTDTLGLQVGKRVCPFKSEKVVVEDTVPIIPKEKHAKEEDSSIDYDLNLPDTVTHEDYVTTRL
As to the kind of experiment: Agonist activity at human TRPC4 stably expressed in T-REx-293 cells assessed as increase in calcium flux at 10 uM by Fura-2AM dye based fluorescence plate reader assay. In kind it is cell-based. As to conditions: filed as agonist.

Data set [3] concerns the target T2, Short transient receptor potential channel 5 (Homo sapiens, UniProt Q9UL62).
T2 sequence (Q9UL62 whole entry): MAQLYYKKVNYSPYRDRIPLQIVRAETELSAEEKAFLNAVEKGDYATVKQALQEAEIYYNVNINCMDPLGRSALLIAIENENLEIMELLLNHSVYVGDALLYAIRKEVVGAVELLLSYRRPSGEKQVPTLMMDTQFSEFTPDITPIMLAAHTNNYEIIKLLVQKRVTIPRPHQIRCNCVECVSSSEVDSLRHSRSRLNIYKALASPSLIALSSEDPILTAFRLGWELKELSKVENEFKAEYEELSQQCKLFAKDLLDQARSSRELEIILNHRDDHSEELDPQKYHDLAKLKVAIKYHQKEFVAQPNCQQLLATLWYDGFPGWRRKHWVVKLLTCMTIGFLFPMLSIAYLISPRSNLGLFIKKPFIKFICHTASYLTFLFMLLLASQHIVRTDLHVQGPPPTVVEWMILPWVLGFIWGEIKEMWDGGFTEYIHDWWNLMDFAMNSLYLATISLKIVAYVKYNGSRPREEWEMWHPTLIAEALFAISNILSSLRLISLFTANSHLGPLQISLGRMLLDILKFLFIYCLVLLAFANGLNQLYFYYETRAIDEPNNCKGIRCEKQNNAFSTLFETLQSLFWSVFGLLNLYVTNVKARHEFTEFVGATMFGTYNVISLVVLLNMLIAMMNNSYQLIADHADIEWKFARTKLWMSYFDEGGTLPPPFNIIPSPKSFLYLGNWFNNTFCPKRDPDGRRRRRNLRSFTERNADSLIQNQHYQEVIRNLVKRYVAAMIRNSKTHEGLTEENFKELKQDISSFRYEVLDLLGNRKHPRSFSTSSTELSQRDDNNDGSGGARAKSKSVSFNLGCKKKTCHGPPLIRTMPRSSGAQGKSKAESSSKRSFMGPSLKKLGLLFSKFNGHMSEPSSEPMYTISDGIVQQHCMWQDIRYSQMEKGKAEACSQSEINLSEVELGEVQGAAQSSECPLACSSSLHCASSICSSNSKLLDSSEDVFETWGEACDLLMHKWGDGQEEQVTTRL
Kind of data set: Agonist activity at human TRPC5 stably expressed in T-REx-293 cells assessed as increase in calcium flux by Fura-2AM dye based fluorescence plate reader assay. The class given is cell-based. (In general: Calcium assays in cells follow changes in intracellular calcium, usually with a dye or a luminescent sensor.)

A short description of data set [4]: Plasma concentration in mouse at 100 mg/kg, po by LC-MS/MS analysis. The class given is ADME, organism-based. As to conditions: in vivo.
The target of data set [5] is T3, Short transient receptor potential channel 5 (Homo sapiens) (UniProt Q9UL62).
T3 sequence (whole entry): T2 sequence (Q9UL62 whole entry)
Kind of data set: Agonist activity at human TRPC5 stably expressed in T-REx-293 cells assessed as increase in calcium flux at 10 uM by Fura-2AM dye based fluorescence plate reader assay. The class given is cell-based. Conditions: filed as agonist.

Data set [6] deals with T1, Short transient receptor potential channel 4 (Homo sapiens). Kind of data set: Agonist activity at human TRPC4 stably expressed in T-REx-293 cells assessed as increase in calcium flux at 10 uM by Fura-2AM dye based fluorescence plate reader assay relative to control. The class given is cell-based.

As for `CC(C)[C@@]12C[C@@H](OS(C)(=O)=O)[C@@](C)(O1)[C@@H]1CC[C@@H](C)[C@H]1[C@@H]2OC(=O)/C=C/c1ccccc1`, the figures for the concentration for 50% growth inhibition (GI50) in the data set with A498, in the data set with UO-31 and in the data set with RXF 393 were 145 nM, 389 nM and 427 nM, respectively.

`CC(C)[C@@]12C[C@@H](OC(=O)[C@H]3CO3)[C@@](C)(O1)[C@@H]1CC[C@@H](C)[C@H]1[C@@H]2OC(=O)/C=C/c1ccccc1`: the GI50 in the data set on A498 came out at 224 nM; in the data set on UO-31, 204 nM; in the data set with RXF 393 it was 170 nM.

Turning to `CC(C)[C@@]12C[C@@H](OC(=O)[C@@H]3CO3)[C@@](C)(O1)[C@@H]1CC[C@@H](C)[C@H]1[C@@H]2OC(=O)/C=C/c1ccccc1`, the results for the GI50 with A498, in the data set on UO-31 and in the data set on RXF 393 were 2040 nM, 1780 nM and 7900 nM, respectively.

On to `CC(=O)OCC(=O)O[C@@H]1C[C@]2(C(C)C)O[C@@]1(C)[C@@H]1CC[C@@H](C)[C@H]1[C@@H]2OC(=O)/C=C/c1ccccc1`, for which the 50% growth inhibitory concentration (GI50) with A498 was 40 nM; in the data set on UO-31 it was 34 nM; with RXF 393, 209 nM. Also, in data set [1], the MTD at 24 h was 0.2 mg/kg. In data set [2], the outcome was Active. For the same compound, the EC50 in data set [3] stood at 480 nM.

For `CC(C)[C@@]12C[C@@H](OC(=O)COS(C)(=O)=O)[C@@](C)(O1)[C@@H]1CC[C@@H](C)[C@H]1[C@@H]2OC(=O)/C=C/c1ccccc1`, the GI50 in the data set with A498 worked out at 1300 nM; in the data set with UO-31, 1400 nM; in the data set with RXF 393, 1100 nM.

As for `CC(C)[C@@]12C[C@@H](OC(=O)COC(=O)c3ccccc3)[C@@](C)(O1)[C@@H]1CC[C@@H](C)[C@H]1[C@@H]2OC(=O)/C=C/c1ccccc1`, the GI50 is 155 nM in the data set with A498, 115 nM in the data set on UO-31 and 282 nM in the data set with RXF 393. Further, in [1], the MTD at 24 h stood at 0.4 mg/kg.

Take `CC(C)[C@@]12C[C@@H](OC(=O)COC(=O)/C=C/c3ccccc3)[C@@](C)(O1)[C@@H]1CC[C@@H](C)[C@H]1[C@@H]2OC(=O)/C=C/c1ccccc1`: the GI50 in the data set on A498 stood at 44 nM; in the data set on UO-31, 66 nM; in the data set with RXF 393, 138 nM. The maximum tolerated dose (MTD) at 24 h in data set [1] was found to be 1 mg/kg. The compound also returned a Cp in [4] of 38.7 ng/mL.

Consider `CC(C)[C@@]12C[C@@H](OC(=O)/C=C/c3ccccc3)[C@@](C)(O1)[C@@H]1CC[C@@H](C)[C@H]1[C@@H]2OC(=O)/C=C/c1ccccc1`, for which the 50% growth inhibitory concentration (GI50) in the data set on A498, with UO-31 and with RXF 393 was above 100000 nM in each case.

As to `CCCCCC(=O)OCC(=O)O[C@@H]1C[C@]2(C(C)C)O[C@@]1(C)[C@@H]1CC[C@@H](C)[C@H]1[C@@H]2OC(=O)/C=C/c1ccccc1`, the GI50 with A498 came out at 52 nM; in the data set on UO-31, 41 nM; in the data set on RXF 393, 126 nM. Also, the outcome in data set [5] was Active. Also, the MTD at 24 h in data set [1] came out at 0.4 mg/kg.

On to `CC(C)=CC(=O)OCC(=O)O[C@@H]1C[C@]2(C(C)C)O[C@@]1(C)[C@@H]1CC[C@@H](C)[C@H]1[C@@H]2OC(=O)/C=C/c1ccccc1`, for which the GI50 in the data set with A498 worked out at 178 nM; in the data set on UO-31 it was 240 nM; in the data set with RXF 393 it was 380 nM. The Activity in [6] was 15%. Further, the MTD at 24 h in data set [1] amounted to 0.4 mg/kg. The compound further registered a Cp in data set [4] of 1.5 ng/mL. In addition, the EC50 in data set [3] stood at 1250 nM.

A word on the GI50: it is the concentration that inhibits growth by half. The term MTD denotes the highest dose tested that stayed within the study's limit of toxicity. As usually defined, the EC50 is the concentration giving half of the maximal effect.
